Columns and labels:
Format in all cases: cell-based
Bacillus cereus = assay: Disc agar diffusion assay
Experimental: (§1) As a further test of an embodiment, the antibacterial properties of EIPE-1 were tested across a large panel of organisms. EIPE-1 was dissolved in DMSO, impregnated onto sterile filter paper disks, and DMSO served as the untreated control according to the following procedure: • 1. Prepare a 2.5 μg/μL stock solution of EIPE-1 by micro pipetting 200 μL of DMSO into 2.0 mL Eppendorf Tube containing 0.5 mg of EIPE-1. Dissolve with vortex agitation and store at 4° C. • 2. Use forceps to pick up sterile 6.0 mm blank paper disks. Make sure to touch only one side of disc as lightly as possible. While holding blank paper disc, deliver 10.0 μL of the 2.5 μg/μL EIPE-1 solution by touching the micropipette tip to the center of the blank paper disc. Lean the impregnated disc up against the side of a small sterile glass petri dish. Follow same procedure for DMSO control. Allow disks several hours to dry under flowing sterile air. • 3. Inoculate starter cultures using cells from working culture cultivated on Mueller-Hinton Agar (MHA; Difco Laboratories). Starters consist of ˜20 mL of Mueller-Hinton Broth (MHB; Difco Laboratories) in 125-mL culture flasks. Incubate starter cultures in an Excella E24 Benchtop Incubator Shaker (New Brunswick Scientific Co., Inc., Edison, N.J., USA) at 37° C. and 180 rpm for 15-18 hours. • 4. Pour at least 5.0 mL of NMB into 18-mL Kimax tubes. Use a Pasteur pipette to deliver enough of the starter culture cell suspension to reach an optical density (OD620) of 0.025 (Spectronic™ 20 optical spectrophotometer; Thermo Electron Corp., Madison, Wis., USA). Ensure that both transmittance and absorbance are set to 0.0 using a blank NMB sample. Incubate in rotary shaking incubator at 37° C. and 180 rpm until optical density reaches 0.1. • 5. Deliver 100 μL of test culture to the middle of a small 100 mm×15 mm Petri dish containing ˜⅛ in thickness of MHA. • 6. Saturate a sterile cotton swab with MHB by dipping the cotton swab into KIMAX® tube with MHB and then touch the swab to the north, south, east, and west side of the KIMAX® tube to remove excess broth. • 7. Streak the inoculum as follows: • a. Start in the center and make four straight lines to the 12, 3, 6, and 9 o'clock position on the petri dish. • b. Start at the 12 o'clock position and streak side to side all the way down the plate to the 6 o'clock position. […] Rotate the petri dish 90° and complete the same side to side streak all the way down the petri dish. • d. Complete step c. twice more. • e. Rotate petri dish 45° and complete the side-to-side streak. • f. Rotate petri dish 90° and complete the side-to-side streak. • 8. Use sterile forceps to transfer the DMSO control paper disc onto the agar surface and pat the paper disc down to ensure flush contact. Use the same technique to deliver EIPE-1 paper disc. • 9. Place petri dish at 4° C. for 1.0 hour to allow EIPE-1 diffusion in the absence of growth. • 10. Incubate petri dish at 37° C. for 18 hours. • 11. Observe for zones of growth inhibition surrounding disks. Measure diameter with electronic caliper and subtract 6.0-mm disc diameter. Results • a) Each organism was initially tested once to serve as a screen.

Escherichia coli K12413 = assay: Disc agar diffusion assay; conditions: Group 1: Gram-negative organisms
Experimental: as §1

Micrococcus luteus = assay: Disc agar diffusion assay
Experimental: as §1

[1] = system: Pasteurella moltocida P-1581; assay: Disc agar diffusion assay; conditions: Group 1: Gram-negative organisms
Experimental: as §1

[2] = system: Pseudomonas aeruginosa ATCC 27853; assay: Disc agar diffusion assay; conditions: Group 1: Gram-negative organisms
Experimental: as §1

[3] = system: Serratia entomophila ATCC 43705; assay: Disc agar diffusion assay; conditions: Group 1: Gram-negative organisms
Experimental: as §1

[4] = system: Serratia fonticola ATCC 9844; assay: Disc agar diffusion assay; conditions: Group 1: Gram-negative organisms
Experimental: as §1

[5] = system: Serratia marcescens CO1-A; assay: Disc agar diffusion assay; conditions: Group 1: Gram-negative organisms
Experimental: as §1

[6] = system: Staphylococcus aureus SFL 64; assay: Disc agar diffusion assay
Experimental: as §1

[7] = system: Staphylococcus aureus SFL 8; assay: Disc agar diffusion assay
Experimental: as §1

[8] = system: Staphylococcus aureus T-5706; assay: Disc agar diffusion assay
Experimental: as §1

[9] = system: Staphylococcus epidermidis; assay: Disc agar diffusion assay
Experimental: as §1

[10] = system: Cryptococcus neoformans serotype A strain H99; assay: Antifungal MIC assay
Experimental: Cryptococcus neoformans serotype A strain H99 as well as Candida ablicans strain SC5314, were readily available in the lab. The stock of cells is stored at −80° C. to preserve the fungi and prevent contamination. The cells were grown and maintained in yeast extract-peptone-dextrose (YPD) media (Difco). Cryptococcus or Candida cells were incubated in YPD broth for 18 hrs at 30° C., in a shaking incubator. After the incubation period, they were washed three times in sterile phosphate-buffered saline (PBS) to remove all remaining residue of YPD. The cells were then quantified by using trypan blue dye exclusion in a hemocytometer.
C. neoformans were suspended in RPMI with MOPS, 0.165M, at a concentration of 0.5×10^3 cells/mL. RPMI MOPS media was added to a 96-well plate in a volume of 100 μL to every well, with the exception of column 1. An additional 80 μL of RPMI MOPS was added to column 4 for a total of 180 μL/per well. Amphotericin B or EIPE-1 was added to columns […] with a volume of 20 μL at a concentration of 1 mg/mL. Contents were mixed, then serially diluted 100 μL down the plate until column 11. The last 100 μL was discarded, leaving column 12 blank. C. neoformans was added at a volume of 100 μL per well from column 4 to column 12, so the final volume of the wells was 200 μL. Plates were incubated at 35° C. in a humid incubator for 48 hrs.

[11] = system: Candida isolates from the airways of CF patients; assay: MIC against Candida clinical isolates; conditions: range over multiple Candida isolates from CF patients (FIG. 8)
Experimental: EIPE-1 was evaluated against multiple Candida isolates from the airways of CF patients.

[12] = Group 2: Gram-positive organisms
[13] = Group 3: Gram-positive organisms

For `COC(=O)c1cc2c(C#Cc3ccc(OCCC[N+](C)(C)C)cc3)c(OC)c(OC)c(C#Cc3ccc(OCCC[N+](C)(C)C)cc3)c2n1C` [EIPE-1, 3,3′-((((5,6-dimethoxy-2-(methoxycarbonyl)-1-methyl-1H-indole-4,7-diyl)bis(ethyne-2,1-diyl))bis(4,1-phenylene))bis(oxy))bis(N,N,N-trimethylpropan-1-aminium) iodide], the zone of inhibition at 25 µg/disc (Bacillus cereus; Bacillus cereus, B. cereus, 25 μg per disk, zone minus disk diameter (6.0mm), read-out: Inhibition Zone Diameter (mm) ± SD) was 0 mm, the “susceptibility group in disc diffusion screen” value (“susceptibility group” below) (Bacillus cereus; [12]) was “resistant” and the “susceptibility group” value (Escherichia coli K12413) was “resistant”. The “susceptibility group” value (Micrococcus luteus; [12]) was “resistant”, the zone of inhibition at 25 µg/disc (Micrococcus luteus; Micrococcus luteus, M. luteus, 25 μg per disk, zone minus disk diameter (6.0mm), read-out: Inhibition Zone Diameter (mm) ± SD) was 1 ± 1 mm and the zone of inhibition at 250 µg/disc (Micrococcus luteus; Micrococcus luteus, M. luteus, 250 μg per disk, zone minus disk diameter (6.0mm), read-out: Inhibition Zone Diameter (mm) ± SD) was 2.2 ± 1.9 mm. The “susceptibility group” value [1] was “resistant”, the “susceptibility group” value [2] was “resistant” and the “susceptibility group” value [3] was “resistant”. The “susceptibility group” value [4] was “resistant”, the “susceptibility group” value [5] was “resistant” and the “susceptibility group” value [6, 13] was “susceptible”. The zone of inhibition at 25 µg/disc ([6]; Staphylococcus aureus, SFL64, S. aureus SFL 64, 25 μg per disk, zone minus disk diameter (6.0mm), read-out: Inhibition Zone Diameter (mm) ± SD) was 2.5 ± 1.5 mm, the zone of inhibition at 250 µg/disc ([6]; Staphylococcus aureus, SFL64, S. aureus SFL 64, 250 μg per disk, zone minus disk diameter (6.0mm), read-out: Inhibition Zone Diameter (mm) ± SD) was 2.5 ± 0.2 mm and the “susceptibility group” value [7, 13] was “susceptible”. For the same compound, the zone of inhibition at 25 µg/disc ([7]; Staphylococcus aureus, SFL8, S. aureus SFL 8, 25 μg per disk, zone minus disk diameter (6.0mm), read-out: Inhibition Zone Diameter (mm) ± SD) was 2.4 ± 1.3 mm, the zone of inhibition at 250 µg/disc ([7]; Staphylococcus aureus, SFL8, S. aureus SFL 8, 250 μg per disk, zone minus disk diameter (6.0mm), read-out: Inhibition Zone Diameter (mm) ± SD) was 2.4 ± 0.3 mm and the “susceptibility group” value [8, 13] was “susceptible”. The zone of inhibition at 25 µg/disc ([8]; Staphylococcus aureus, T5706, S. aureus T-5706, 25 μg per disk, zone minus disk diameter (6.0mm), read-out: Inhibition Zone Diameter (mm) ± SD) was 2.1 ± 0.3 mm, the zone of inhibition at 250 µg/disc ([8]; Staphylococcus aureus, T5706, S. aureus T-5706, 250 μg per disk, zone minus disk diameter (6.0mm), read-out: Inhibition Zone Diameter (mm) ± SD) was 2.2 ± 0.2 mm and the “susceptibility group” value [9, 13] was “susceptible”. The zone of inhibition at 25 µg/disc ([9]; Staphylococcus epidermidis, S. epidermidis, 25 μg per disk, zone minus disk diameter (6.0mm), read-out: Inhibition Zone Diameter (mm) ± SD) was 2.6 ± 0.3 mm, the zone of inhibition at 250 µg/disc ([9]; Staphylococcus epidermidis, S. epidermidis, 250 μg per disk, zone minus disk diameter (6.0mm), read-out: Inhibition Zone Diameter (mm) ± SD) was 3.3 ± 0.5 mm and the “MIC for C. neoformans” value [10] was 3.1 µg/mL. The “Minimum inhibitory concentration (MIC) for the isolate of C. neoformans” value ([10]; 35° C., 48 hrs, RPMI with MOPS) was 1.749 ± 0.1080 µg·mL, the MIC ([10]; Cryptococcus neoformans, read-out: MIC for C. neoformans) was 1.75 µg/mL and the MIC, C. neoformans ([10]; across seven MIC assays) was 1.67 µg/mL. For the same compound, the MIC [11] was 4 to 11 µg/mL.
